Test results: PMC11124394, “Novel Combretastatin A-4 Analogs—Design, Synthesis, and Antiproliferative and Anti-Tubulin Activity” (Molecules, 2024)

Columns and labels:
[1] = tested on: SW480 (primary colon cancer) cells; assay: SRB cytotoxicity assay, SW480; assay type: cell-based; conditions: Homo sapiens, SW480; SRB assay, 48 h culture, mean ± SD, at least three independent experiments; compounds marked * : low solubility, real values might be lower; read-out: Cytotoxicity IC50, SW480
Protocol: (§1) The antiproliferative activity was tested on human primary (SW480) and metastatic (SW620) colon cancer, human prostate cancer (PC3), human liver cancer (HepG2), human breast cancer (MDA), human lung cancer (A549), and human immortalized keratinocyte (HaCaT) cell lines obtained from the American Type Culture Collection (ATCC, Rockville, MD, USA). The cells were cultured in EMEM (SW480 and SW620), RPMI 1640 (PC3) or DMEM High Glucose (HepG2, MDA, A549, and HaCaT) with stable glutamine supplemented with 10% heat-inactivated fetal bovine serum (FBS), penicillin (100 U/mL), and streptomycin (100 µg/mL) in 37 °C and 5% CO2/95% air humified incubator. The cells were grown until 80–90% confluence and then were harvested with 0.25% trypsin and used for the experiments. All the reagents for the cell culture were provided by VWR Chemicals.
(§2) Cytotoxicity was tested with the sulforhodamine B (SRB) assay according to the National Cancer Institute protocol with slight modifications. Briefly, cells were seeded on a 96-well plate (5 × 10^3 cells per well). After 24 h incubation, zero-time control cells were fixed with TCA (final concentration 5%) for 1 h at 4 °C. […] The untreated cells were used as the control. After incubation, the cells were fixed with TCA (final concentration 5%) for 1 h at 4 °C, gently washed 4 times with tap water, and left for drying. The dried fixed cells were incubated with SRB solution (0.05% SRB in 1% acetic acid) for 30 min rt, washed four times with 1% acetic acid, and left for drying. The dried cells were dissolved in 10 mM Tris-base solution (pH 10.5) and the absorbance was read at 510 nm.
(§3) The cell viability was presented as a percent of SRB reduction in the treated cells versus that in control cells. The mean absorbance for control cells was assumed as 100%. No-cell control (blank well) absorbance was assumed as 0%, unless the compound was cytostatic, then 0% referred to zero-time control. The IC50 values were calculated using the GraphPad Prism 10.1.2 (324) (USA) software. The most cytotoxic compounds (8 and 20) were selected for further in vitro experiments.

[2] = tested on: SW620 (metastatic colon cancer) cells; assay: SRB cytotoxicity assay, SW620; assay type: cell-based; conditions: Homo sapiens, SW-620; SRB assay, 48 h culture, mean ± SD, at least three independent experiments; compounds marked * : low solubility, real values might be lower; read-out: Cytotoxicity IC50, SW620
Protocol: as §1, §2, §3

[3] = tested on: PC3 (prostate cancer) cells; assay: SRB cytotoxicity assay, PC3; assay type: cell-based; conditions: Homo sapiens; SRB assay, 48 h culture, mean ± SD, at least three independent experiments; compounds marked * : low solubility, real values might be lower; read-out: Cytotoxicity IC50, PC3
Protocol: as §1, §2, §3

[4] = tested on: HepG2 (liver cancer) cells; assay: SRB cytotoxicity assay, HepG2; assay type: cell-based; conditions: Homo sapiens, HepG2; SRB assay, 48 h culture, mean ± SD, at least three independent experiments; compounds marked * : low solubility, real values might be lower; read-out: Cytotoxicity IC50, HepG2
Protocol: as §1, §2, §3

[5] = tested on: MDA (breast cancer) cells; assay: SRB cytotoxicity assay, MDA; assay type: cell-based; conditions: Homo sapiens; SRB assay, 48 h culture, mean ± SD, at least three independent experiments; compounds marked * : low solubility, real values might be lower; read-out: Cytotoxicity IC50, MDA
Protocol: as §1, §2, §3

A549 (lung cancer) cells = assay: SRB cytotoxicity assay, A549; assay type: cell-based; conditions: Homo sapiens, A549; SRB assay, 48 h culture, mean ± SD, at least three independent experiments; compounds marked * : low solubility, real values might be lower; read-out: Cytotoxicity IC50, A549
Protocol: as §1, §2, §3

[6] = SRB cytotoxicity assay, HaCaT; assay type: cell-based; conditions: human, 48 h culture, mean ± SD, at least three independent experiments, compounds marked * : low solubility, real values might be lower
Protocol: as §1, §2, §3

HaCaT cells = assay: Cell cycle analysis (PI, flow cytometry), HaCaT; assay type: cell-based, human; conditions: 24 h treatment; for Cell cycle phase arrest (ratio G2/M to G0/G1): 1.5 and 2 nM CA4, 25, 30, 40 mM 8, 15, 20, 30 mM 20
Protocol: (§4) The cell cycle was assessed for the compounds 8 and 20 and the combretastatin CA4 as a reference compound. The compounds were most cytotoxic to the MDA and A549 cancerous cell lines; thus, these cell lines were selected for further analyses. The HaCaT cell line was chosen to represent non-cancer cells. For the experiment, the cells were seeded on 6-well plates (5 × 10^4 cells per well). After 24 h of incubation, the cells were treated with the compounds in selected concentrations (1.5 and 2 nM for CA4; […]) and incubated for the next 24 h. Then, the cells were detached with 0.25% trypsin, washed with 0.9% NaCl, and fixed with 70% ethanol at 4 °C for at least 16 h. For drying, the cells were washed twice with 0.9% NaCl, resuspended in 50 μg/mL propidium iodide (PI) and 100 μg/mL RNase in PBS and incubated for 30 min at 37 °C. The cell cycle distribution was analyzed by flow cytometer (FACS Verse, Becton, Dickinson and Company, Franklin Lakes, NJ, USA).

MDA cells = assay: Cell cycle analysis (PI, flow cytometry), MDA; assay type: cell-based, human; conditions: 24 h treatment; for Cell cycle phase arrest (ratio G2/M to G0/G1): 1.5 and 2 nM CA4, 25, 30, 40 mM 8, 15, 20, 30 mM 20
Protocol: as §4

A549 cells = assay: Cell cycle analysis (PI, flow cytometry), A549; assay type: cell-based, human; conditions: A549, 24 h treatment; for Cell cycle phase arrest (ratio G2/M to G0/G1): 1.5 and 2 nM CA4, 25, 30, 40 mM 8, 15, 20, 30 mM 20
Protocol: as §4

tubulin = assay: In vitro tubulin polymerization (turbidometry at 340 nm, BK004P kit); assay type: biochemical, porcine; conditions: for Effect on in vitro tubulin polymerization: 37 °C, 60 min, absorbance 340 nm, CA-4 5 μM, colchicine 5 μM, compounds 8 and 20 at 20 or 100 μM; for Concentration dependence of the acceleration of tubulin polymerization: 20 and 100 μM
Protocol: The kinetics of microtubule assembly was assessed by measuring absorbance at 340 nm over time.
The assembly of purified bovine tubulin was monitored using a BK004P kit, purchased from Cytoskeleton Inc. (Denver, CO, USA). The assay was performed according to the manufacturer’s instructions using the standard assay conditions. […] Light was scattered proportionally to the concentration of the polymerized microtubules in the assay. Then, the tubulin assembly was monitored by turbidometry at 340 nm in a MultiscanGo spectrophotometer (ThermoFisher Scientific, Carlsbad, CA, USA) for 60 min. The time dependence of the tubulin polymerization was presented in the form of graphs prepared in the GraphPad Prism 8.4.3.686 (Boston, MA, USA) software.

[7] = design: method as in earlier work; conditions: in contrast to the original compound; cited from earlier work
[8] = tested on: six human cancer cell lines (SW480, SW620, PC3, HepG2, MDA, A549) and HaCaT; assay: SRB cytotoxicity assay, whole panel; assay type: cell-based; conditions: Homo sapiens, depending on the compound and cell line, read-out: IC50 over the cell line panel
Protocol: The antiproliferative properties of the studied combretastatin derivatives were tested on six human cancer cell lines, including primary colon (SW480), metastatic colon (SW620), prostate (PC3), liver (HepG2), breast (MDA), and lung (A549) cancer cells, and non-tumor human immortalized keratinocyte cell line (HaCaT) using the sulforhodamine B (SRB) assay. […] No selectivity was observed against the tumor cell lines when compared to that against the non-tumor cell line. Nevertheless, these values were much higher than the IC50 of the reference compounds (<0.2 μM).
as §1, §2, §3

[9] = HaCaT immortalized keratinocyte cells (non-tumor cell line)

Row | Structure (SMILES) | IC50 [1] [µM] | IC50 [2] [µM] | IC50 [3] [µM] | IC50 [4] [µM] | IC50 [5] [µM] | IC50 (A549 (lung cancer) cells) [µM] | IC50 at 48 h ([6]; non-tumor cell line) [µM] | DNA fragmentation (subG1 phase) (HaCaT cells) | Cell cycle phase arrest (ratio G2/M to G0/G1) (HaCaT cells) | DNA fragmentation (subG1 phase) (MDA cells) | Cell cycle phase arrest (ratio G2/M to G0/G1) (MDA cells) | Cell cycle phase arrest (ratio G2/M to G0/G1) (A549 cells) | Effect on in vitro tubulin polymerization (tubulin) | Water solubility [7] | IC50 at 48 h [6, 9] [µM] | IC50 [8] [µM] | DNA fragmentation (subG1 phase) (A549 cells) | Concentration dependence of the acceleration of tubulin polymerization (tubulin)
1 | COc1ccc(/C=C\c2cc(OC)c(OC)c(OC)c2)cc1O [CA4, combretastatin A-4] | 0.00281 ± 0.00017 | 0.00221 ± 0.00088 | 0.0021 ± 0.00026 | 0.00158 ± 0.00019 | 0.00372 ± 0.00027 | 0.00343 ± 0.00096 | 0.00427 ± 0.00047 | appearance of the subG1 phase was observed | G2 phase arrest | statistically significant differences between subG1 populations were observed | no statistically significant differences | no statistically significant differences | inhibited tubulin polymerization | – | – | – | – | –
2 | COc1ccc(/C=C\c2cc(OC)c(OC)c(OC)c2)cc1OP(=O)(O)O [Combretastatin A4 phosphate, combretastatin A-4 disodium phosphate] | – | – | – | – | – | – | – | – | – | – | – | – | – | water-soluble | – | – | – | –
3 | COc1ccc(/C(=C\c2cc(OC)c(OC)c(OC)c2)C(=O)OCCCCBr)cc1Br [Compound 8] | 32.7 ± 6.7 | 24.2 ± 8.4 | 31 ± 5.5 | 25.5 ± 6.3 | 23.1 ± 7.7 | 19.6 ± 2 | – | appearance of the subG1 phase was observed | G0/G1 phase arrest | statistically significant differences between subG1 populations were observed | not observed | G0/G1 phase arrest | enhanced tubulin polymerization | – | 23.9 ± 3.9 | 18.8 to 32.7 | certain differences were noted | concentration-dependent
4 | CCCCN(CCCC)C(=O)/C(=C/c1cc(OC)c(OC)c(OC)c1)c1ccc(OC)c(Br)c1 [Compound 20] | 18.8 ± 0.8 | 20.9 ± 2.9 | 23.7 ± 10.3 | 25.8 ± 9.6 | 19 ± 7.1 | 19.4 ± 2.2 | – | appearance of the subG1 phase was observed | G0/G1 phase arrest | – | G0/G1 phase arrest | G0/G1 phase arrest | enhanced tubulin polymerization | – | 20.5 ± 9.7 | 18.8 to 32.7 | certain differences were noted | on a similar level
